Consider 2 compounds from patent US9017692B2, “Antimicrobial agent, bacterial strain, biosynthesis, and methods of use” (priority 2011, dated 2015).

The subject of one experiment is MRSA ATCC 43300 SAU.399. Kind of experiment: microbe, parasite or virus in culture. The settings on record: Staphylococcus aureus, ATCC43300|MRSA, read-out: Minimum inhibitory concentration (MIC). The protocol:
(§1) The activity of paenibacterin against several strains of Gram-positive and Gram-negative foodborne pathogens is summarized in Table 10. The data is reported as minimum inhibitory concentrations (MIC) as an average of three replicates for paenibacterin against the various listed bacterial strains. […] MICs were determined according to the CLSI broth microdilution method (see, Clinical and Laboratory Standards Institute (CLSI). 2009. Methods for dilution antimicrobial susceptibility tests for bacteria that grow aerobically; approved standard. […]. CLSI, Wayne, Pa.). Briefly, HPLC-purified paenibacterin was dissolved in methanol and diluted to appropriate concentration with cation-adjusted Mueller-Hinton II broth (Difco). Aliquots (25 μl) of serially-diluted paenibacterin was dispensed into wells of a 96-well plate; an equal amount of 1/10 diluted overnight bacterial culture was added to wells. Plates were incubated at 35° C. for 24 h. Cell growth after incubation was examined and determined using a microtiter plate reader at 600 nm. Concentration of paenibacterin is determined based on a molecular weight of 1604 Da.
(§2) The activity of paenibacterin was further tested against clinical isolates of the following Gram-positive bacteria: methicillin-sensitive Staphylococcus aureus (MSSA), methicillin-resistant S. aureus (MRSA), vancomycin-sensitive Enterococcus faecalis, vancomycin-resistant E. faecalis (VRE), Streptococcus pneumoniae, and laboratory derived daptomycin-resistant (DR) MSSA, MRSA, and VRE strains. The MICs were determined using the above described CLSI broth microdilution method, in which the method was performed with non-binding surface coated (NBS) 96-well plates.

The next experiment deals with WT ATCC 49619 SPN.31. Put plainly: microbe, parasite or virus in culture. The settings on record: Streptococcus pneumoniae, ATCC49619, read-out: Minimum inhibitory concentration (MIC). On the procedure: as §1, §2
The test system of experiment [1] is DR-MSSA from SAU.42 SAU.278. Put plainly: microbe, parasite or virus in culture. Particulars: Staphylococcus aureus, MSSA, read-out: Minimum inhibitory concentration (MIC). The protocol:
as §1, §2

Experiment [2] has as its system DR-MRSA from MW2 SP SAU.1616. Put plainly: microbe, parasite or virus in culture. Particulars: Staphylococcus aureus, MRSA, read-out: Minimum inhibitory concentration (MIC). On the procedure:
as §1, §2

The next experiment concerns MSSA ATCC 29213 SAU.42. Put plainly: microbe, parasite or virus in culture. The settings on record: Staphylococcus aureus, ATCC29213|MSSA, read-out: Minimum inhibitory concentration (MIC). On the procedure: as §1, §2
The subject of experiment [3] is DS-VRE ATCC 700802 EFS.807. Kind of experiment: microbe, parasite or virus in culture. The settings on record: Enterococcus faecalis, ATCC700802|VRE, read-out: Minimum inhibitory concentration (MIC). The protocol: as §1, §2
Experiment [4] concerns DR-VRE from EFS.807 EFS.2731. Kind of experiment: microbe, parasite or virus in culture. The settings on record: Enterococcus faecalis, VRE, read-out: Minimum inhibitory concentration (MIC). The protocol: as §1, §2
The next experiment relates to WT ATCC 29212 EFS.43. Put plainly: microbe, parasite or virus in culture. The settings on record: Enterococcus faecalis, ATCC29212, read-out: Minimum inhibitory concentration (MIC). The protocol: as §1, §2
The next experiment deals with KPN.2317. Put plainly: MIC, CLSI broth microdilution, Gram-negative clinical isolates. In kind it is cell-based, Klebsiella pneumoniae. On the procedure: (§3) Plates were incubated at 35° C. for 24 h.
(§4) The activity of paenibacterin was also tested against clinical isolates of the following Gram-negative bacterial strains: four strains of the species Pseudomonas aeruginosa (PAE), three strains of the species Acinetobacter baumannii (ABA), two strains of the species Escherichia coli (ECO), and four strains of the species Klebsiella pneumoniae (KPN). Particularly, the strains of Gram-negative bacteria included polymyxin B-resistant (PMB-R) and polymyxin B-sensitive (PMB-S) strains of each above listed species. The MICs were determined using the above described CLSI broth microdilution method, in which the method was performed with both non-binding surface coated (NBS) and polystyrene (PS) 96-well plates (Tables 11 and 12, respectively). The MICs were generally lower in the NBS 96-well plates as compared to the PS 96-well plates.
Background: Dilution methods test growth across graded concentrations, often in twofold steps.

A further experiment relates to PMB-S, KPN.2461. The description is as above. Type of experiment: cell-based, Klebsiella pneumoniae. The protocol:
as §3, §4

For another experiment, the system named is KPN.674. The description is as above. In kind it is cell-based, Klebsiella pneumoniae. On the procedure: as §3, §4
For the next experiment, the system named is PMB-R, KPN.2463. Described as above. In kind it is cell-based, Klebsiella pneumoniae. On the procedure: as §3, §4
The next experiment relates to ATCC 25922 ECO.35. The experiment is described as above. In kind it is cell-based, Escherichia coli. The protocol: as §3, §4
The test system of a further experiment is ECO.2276. The description is as above. In kind it is cell-based, Escherichia coli. On the procedure: as §3, §4
A further experiment relates to ABA.2232. The experiment is described as above. Type of experiment: cell-based, Acinetobacter baumannii. The protocol:
as §3, §4

The subject of another experiment is ABA.2315. Described as above. Type of experiment: cell-based, Acinetobacter baumannii. The protocol: as §3, §4
Another experiment concerns ABA.1570. The experiment is described as above. Type of experiment: cell-based, Acinetobacter baumannii. The protocol:
as §3, §4

The test system of another experiment is PAE.2325. The description is as above. Type of experiment: cell-based, Pseudomonas aeruginosa. The protocol: as §3, §4
Another experiment has as its system PAE.44. Described as above. Type of experiment: cell-based, Pseudomonas aeruginosa. On the procedure:
as §3, §4

The test system of a further experiment is PAE.2281. Described as above. Type of experiment: cell-based, Pseudomonas aeruginosa. On the procedure:
as §3, §4

For another experiment, the system named is PAE.999. Described as above. In kind it is cell-based, Pseudomonas aeruginosa. The protocol:
as §3, §4

≈ marks a conversion by molar mass, not a printed value.

As to `CN[C@H](CC(C)C)C(=O)N[C@H]1C(=O)N[C@@H](CC(N)=O)C(=O)N[C@H]2C(=O)N[C@H]3C(=O)N[C@H](C(=O)N[C@H](C(=O)O)c4cc(O)cc(O)c4-c4cc3ccc4O)[C@H](O)c3ccc(c(Cl)c3)Oc3cc2cc(c3O[C@@H]2O[C@H](CO)[C@@H](O)[C@H](O)[C@H]2O[C@H]2C[C@](C)(N)[C@H](O)[C@H](C)O2)Oc2ccc(cc2Cl)[C@H]1O` [vancomycin], the MIC in the experiment with MRSA ATCC 43300 SAU.399 is 2 mg/L (≈ 1.38 µM); in the experiment with WT ATCC 49619 SPN.31, 16 mg/L (≈ 11 µM); in experiment [1], 2 mg/L (≈ 1.38 µM); in [2], 2 mg/L (≈ 1.38 µM); in the experiment with MSSA ATCC 29213 SAU.42, 1 mg/L (≈ 0.69 µM); in [3], 16 to 32 mg/L (≈ 11 to 22.1 µM). The MIC is 32 mg/L (≈ 22.1 µM) in [4] and 2 to 4 mg/L (≈ 1.38 to 2.76 µM) in the experiment on WT ATCC 29212 EFS.43.

With polymyxin B sulfate, the “Minimum inhibitory concentration (MIC)” value in the experiment on KPN.2317 (NBS 96-well plates) was over 64 mg/L; in the experiment with KPN.2317 (PS 96-well plates), over 64 mg/L; in the experiment on PMB-S, KPN.2461 (KPN.2461 (PMB-S), NBS 96-well plates) it was 0.06 to 0.13 mg/L; in the experiment on PMB-S, KPN.2461 (KPN.2461, PS 96-well plates) it was 2 mg/L; in the experiment on KPN.674 (NBS 96-well plates), 0.125 mg/L; in the experiment with KPN.674 (PS 96-well plates), 2 mg/L. Moreover, the “Minimum inhibitory concentration (MIC)” value with PMB-R, KPN.2463 (KPN.2463 (PMB-R), NBS 96-well plates) is 2 to 8 mg/L; with PMB-R, KPN.2463 (KPN.2463, PS 96-well plates), 32 mg/L; in the experiment with ATCC 25922 ECO.35 (ECO.35 (ATCC 25922), NBS 96-well plates), 0.06 mg/L; in the experiment with ATCC 25922 ECO.35 (ECO.35, PS 96-well plates), 2 mg/L; in the experiment on ECO.2276 (NBS 96-well plates) it was 8 mg/L; in the experiment with ECO.2276 (PS 96-well plates) it was 8 mg/L. In addition, the “Minimum inhibitory concentration (MIC)” value with ABA.2232 (NBS 96-well plates) is 0.06 mg/L; in the experiment with ABA.2232 (PS 96-well plates), 2 mg/L; in the experiment with ABA.2315 (NBS 96-well plates), 8 mg/L; in the experiment with ABA.2315 (PS 96-well plates) it was 64 mg/L; with ABA.1570 (NBS 96-well plates), 0.0625 mg/L; in the experiment on ABA.1570 (NBS 96-well plates, listed as polymyxin B), 0.06 mg/L. Further, the “Minimum inhibitory concentration (MIC)” value turned out to be 2 mg/L in the experiment with ABA.1570 (PS 96-well plates); 0.25 mg/L with PAE.2325 (NBS 96-well plates); 2 mg/L in the experiment on PAE.2325 (PS 96-well plates); 0.125 mg/L in the experiment with PAE.44 (non-binding surface coated (NBS) 96-well plates); 2 mg/L in the experiment with PAE.44 (polystyrene (PS) 96-well plates); 16 mg/L with PAE.2281 (NBS 96-well plates). Moreover, the “Minimum inhibitory concentration (MIC)” value with PAE.2281 (PS 96-well plates) was 16 mg/L; in the experiment on PAE.999 (NBS 96-well plates), 0.25 mg/L; in the experiment with PAE.999 (PS 96-well plates), 2 mg/L.
